Consider seven molecules from US12331038B2, “Hexone glucokinase inhibitor and use thereof” (SHANDONG XUANZHU PHARMA CO., LTD., priority 2019, dated 2025).

The target of experiment [1] is T1, KHK-C (Homo sapiens (Human), UniProt P50053). As to the kind of experiment: Inhibitory activity against KHK-C kinase in vitro (ADP-Glo), Experimental Protocol II. It counts as biochemical. The conditions noted are these: 1 nM KHK-C, 100 μM ATP, 200 μM D-Fructose, control drug top concentration 1000 nM. As for the experimental part:
Experimental Protocol II: 1. Compound Dilution • 1) The compounds of the present invention and the control drug were formulated in DMSO to 10 mM as stock solutions for test. • 2) The stock solutions of the compounds of the present invention were diluted by 10-fold to 1 mM, and then further diluted in a 3-fold gradient to 11 concentrations, with the highest concentration being 1 mM. The stock solution of the control drug was diluted by 100-fold to 0.1 mM, and then further diluted in a 3-fold gradient to 11 concentrations, with the highest concentration being 0.1 mM. • 3) 0.1 μL of the compounds of the present invention and the control drug as diluted was transferred with Echo550 to a 384-well plate, in duplicate per concentration, and then centrifuged at 1000 rpm for 1 min. 2. Enzyme Reaction Test • 1) 5 μL of KHK-C kinase working solution was added to the 384-well plate, centrifuged at 1000 rpm for 1 min, and then incubated at room temperature of 25° C. for 15 min. • 2) 5 μL of the substrate working solution was added to the 384-well plate to initiate the kinase reaction, centrifuged at 1000 rpm for 1 min, and incubated at room temperature of 25° C. for 60 min. • 3) The final concentrations of the KHK-C kinase reaction system were 1 nM for KHK-C, 100 μM for ATP, 200 μM for D-Fructose, 50 mM for HEPES, 10 mM for MgCl2, and 0.01% for Brij35, and the final concentration of DMSO was 1%. • 4) The final concentrations of the test compounds were 10000 nM, 3333.33 nM, 1111.11 nM, 370.37 nM, 123.457 nM, 41.15 nM, 13.71 nM, 4.572 nM, 1.524 nM, 0.508 nM, and 0.169 nM, respectively. • 5) The final concentrations of the control drug were 1000 nM, 333.33 nM, 111.11 nM, 37.037 nM, 12.346 nM, 4.115 nM, 1.371 nM, 0.4572 nM, 0.1524 nM, 0.0508 nM, and 0.0169 nM, respectively. 3. Reaction Termination and Detection • 1) The 384-well plate was added with 10 μL of the ADP Glo reagent, centrifuged at 1000 rpm for 1 min, and then incubated at room temperature of 25° C. for 40 min. • 2) The 384-well plate was added with 20 μL of the kinase detection reagent, centrifuged at 1000 rpm for 1 min, and then incubated at room temperature of 25° C. for 40 min. • 3) After the reaction was completed, the […] value LUM was read on Envision. 4. Data Analysis The following equation was used to calculate the inhibition (% inh): […]

Another experiment has as its system HepG2 cells. Put plainly: Inhibition of production of fructose-1-phosphate induced by D-Fructose in HepG2 cells (LC-MS). It counts as cell-based. The following applies: 30 min compound pre-incubation, D-Fructose 3 hours. Here is the method:
Experimental Protocol: 1. Cell Culture and Inoculation • 1) HepG2 cells in the logarithmic growth phase were collected and counted with a […]. The Trypan blue exclusion method was used to detect cell viability and ensure that cell viability is 90% or above. • 2) The concentration of HepG2 cells was adjusted, and 81 μL of the cell suspension in a FBS-free basal medium (starvation treatment) was add to a 96-well plate, with a cell inoculum amount of 5×10^4 cells per test well. • 3) The HepG2 cells in the 96-well plate were cultured overnight at 37° C., 5% CO2, and 95% humidity. 2. Administration • 1) Before administration, 9 μL of FBS was added to the test wells of the 96-well plate to stop the starvation treatment. • 2) 10× stock solutions of the individual test compounds were prepared by dilution in a 3-fold gradient to 8 concentrations, with the highest concentration of 100 μM. 10 μL of the test compound solutions was added to each well of the 96-well plate inoculated with the cells, in triplicate per test compound concentration. For the solvent control, 10 μL of 1% DMSO solution was added to each well, in triplicate. • 3) The cells in the 96-well plate added with the test compounds were incubated at 37° C., 5% CO2, and 95% humidity for 30 min. • 4) An 11-fold D-Fructose solution was prepared at the concentration of 220 mM. 10 μL of the D-Fructose solution was added to the 96-well plate inoculated with HepG2 cells per well, in triplicate. For the solvent control, 10 μL of 11% DPBS solution was added, in triplicate. • 5) The cells in the 96-well plate added with D-fructose were incubated at 37° C., 5% CO2, and 95% humidity for 3 hours. 3. Sample Treatment The medium in the 96-well plate was removed, and the cells in the 96-well plate were washed with cold DPBS (200 μl/well) for 3 times. 30 μL of cold 10 mM ammonium acetate (pH 7.4) was added into each well to lyse the cells (hypotonic lysis). After lysis on ice for 5 minutes, the cells were fully pipetted and the cell lysate was taken for LC-MS analysis. 4. Data Analysis The data were analyzed with GraphPad Prism 5.0 software, and fitted with nonlinear S-curve regression, so as to obtain a dose-effect curve to calculate the EC50 value. 5.

The target in experiment [2] is T1, KHK-C. Put plainly: Inhibitory activity against KHK-C kinase in vitro (ADP-Glo), Experimental Protocol I. It counts as biochemical. The conditions noted are these: 1 nM KHK-C, 100 μM ATP, 200 μM D-Fructose, control drug top concentration 10000 nM. As for the experimental part:
2. […] 3. Reaction Termination and Detection • 1) The 384-well plate was added with 10 μL of the ADP Glo reagent, centrifuged at 1000 rpm for 1 min, and then incubated at room temperature of 25° C. for 40 min. • 2) The 384-well plate was added with 20 μL of the kinase detection reagent, centrifuged at 1000 rpm for 1 min, and then incubated at room temperature of 25° C. for 40 min. • 3) After the reaction was completed, the […] value LUM was read on Envision. 4. Data Analysis The following equation was used to calculate the inhibition (% inh): […]
On the technique in general: In ADP-Glo the light output rises with the ADP produced.

T1 sequence (P50053 whole entry): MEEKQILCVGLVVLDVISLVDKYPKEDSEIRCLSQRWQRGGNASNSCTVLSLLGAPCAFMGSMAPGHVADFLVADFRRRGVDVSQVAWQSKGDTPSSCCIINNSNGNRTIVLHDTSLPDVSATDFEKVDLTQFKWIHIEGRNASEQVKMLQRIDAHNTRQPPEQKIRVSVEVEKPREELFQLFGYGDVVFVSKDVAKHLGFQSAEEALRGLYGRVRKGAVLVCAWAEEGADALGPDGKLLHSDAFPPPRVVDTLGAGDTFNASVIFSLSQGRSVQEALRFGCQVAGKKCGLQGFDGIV

In general, IC50 refers to the point on the concentration scale where inhibition reaches its midpoint. A lower IC50 goes with inhibition by little substance. The EC50 is the midpoint of the concentration-response curve. A high value points to weaker potency. Molecule `C[C@H]1N(c2nc(N3C[C@@H]4[C@@H](CC(=O)O)[C@@H]4C3)c3c(n2)C(F)(F)CCC3)CC1(F)F` (single isomer, unassigned) [Compound 4-2] gave a half-inhibitory concentration (IC50) at KHK-C [1] of 1.5 nM. The molecule further yielded an EC50 in the experiment with HepG2 cells (Homo sapiens) of 18.2 nM. Molecule `C[C@H]1CCN1c1nc(N2C[C@@H]3[C@@H](CC(=O)O)[C@@H]3C2)c2c(n1)C(F)(F)CC2` [Compound 1, 2-((1R,5S,6R)-3-(7,7-difluoro-2-((S)-2-methylazetidin-1-yl)-6,7-dihydro-5H-cyclopenta[d]pyrimidin-4-yl)-3-azabicyclo[3.1.0]hexan-6-yl)acetic acid] returned an EC50 in the experiment with HepG2 cells (Homo sapiens) of 21.9 nM. That is a double-digit nanomolar value. At KHK-C [2], `C[C@H]1CCN1c1nc(N2C[C@@H]3[C@@H](CC(=O)O)[C@@H]3C2)c2c(n1)C(F)(F)CCC2` [Compound 2, 2-((1R,5S,6R)-3-(8,8-difluoro-2-((S)-2-methylazetidin-1-yl)-5,6,7,8-tetrahydroquinazolin-4-yl)-3-azabicyclo[3.1.0]hexan-6-yl)acetic acid] displayed an IC50 of 0.52 nM. This molecule also displayed a half-maximal effective concentration (EC50) in the experiment on HepG2 cells (Homo sapiens) of 14.5 nM. For `CC1C(F)CN1c1nc(N2C[C@@H]3[C@@H](CC(=O)O)[C@@H]3C2)c2c(n1)C(F)(F)CCC2` (stereo partly drawn) [Compound 3-1, 2-((1R,5S,6s)-3-(8,8-difluoro-2-(3-fluoro-2-methylazetidin-1-yl)-5,6,7,8-tetrahydroquinazolin-4-yl)-3-azabicyclo[3.1.0]hexan-6-yl)acetic acid], the IC50 against KHK-C [1] is 0.73 nM. In the experiment with HepG2 cells (Homo sapiens), this molecule displayed an EC50 of 7.3 nM. In the case of `CC1N(c2nc(N3C[C@@H]4[C@@H](CC(=O)O)[C@@H]4C3)c3c(n2)C(F)(F)CCC3)CC1(F)F` (stereo partly drawn) [Compound 4-1, 2-((1R,5S,6s)-3-(2-(3,3-difluoro-2-methylazetidin-1-yl)-8,8-difluoro-5,6,7,8-tetrahydroquinazolin-4-yl)-3-azabicyclo[3.1.0]hexan-6-yl)acetic acid], the IC50 against KHK-C [1] was determined as 2.2 nM. In the experiment on HepG2 cells (Homo sapiens), this molecule gave an EC50 of 11.8 nM.

The molecule `CC1C(F)CN1c1nc(N2C[C@@H]3[C@@H](CC(=O)O)[C@@H]3C2)c2c(n1)C(F)(F)CC2` (stereo partly drawn) [Compound 6-1, 2-((1R,5S,6s)-3-(7,7-difluoro-2-(3-fluoro-2-methylazetidin-1-yl)-6,7-dihydro-5H-cyclopenta[d]pyrimidin-4-yl)-3-azabicyclo[3.1.0]hexan-6-yl)acetic acid] showed an IC50 on KHK-C [1] of 0.9 nM. The molecule also showed an EC50 in the experiment on HepG2 cells (Homo sapiens) of 39 nM. Molecule `C[C@H]1CCN1c1nc(N2C[C@@H]3C(CC(=O)O)[C@@H]3C2)cc(C(F)(F)F)n1` (stereo partly drawn) [PF-06835919, reference compound] came in with a half-maximal effective concentration (EC50) in the experiment on HepG2 cells of 169 nM.
